{
  "source": "paper PMC12985397",
  "about": "(Experimental cell research, 2009)",
  "molecular_target": "histamine H1 receptor (H1R) (Homo sapiens, UniProt P35367)",
  "sequence (P35367 whole entry)": "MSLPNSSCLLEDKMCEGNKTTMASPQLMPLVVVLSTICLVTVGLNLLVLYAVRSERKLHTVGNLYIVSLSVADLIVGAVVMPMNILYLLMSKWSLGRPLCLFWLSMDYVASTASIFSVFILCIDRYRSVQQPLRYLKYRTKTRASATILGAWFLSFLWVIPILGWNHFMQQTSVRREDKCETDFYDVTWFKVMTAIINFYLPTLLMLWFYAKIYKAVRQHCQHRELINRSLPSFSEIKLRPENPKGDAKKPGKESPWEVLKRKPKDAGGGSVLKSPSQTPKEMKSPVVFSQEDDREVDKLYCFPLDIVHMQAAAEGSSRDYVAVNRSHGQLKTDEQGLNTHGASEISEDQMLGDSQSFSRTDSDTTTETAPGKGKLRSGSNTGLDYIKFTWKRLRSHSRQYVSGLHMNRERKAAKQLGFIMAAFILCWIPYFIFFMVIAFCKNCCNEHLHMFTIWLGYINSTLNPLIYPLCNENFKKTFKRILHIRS",
  "experiment": "[3H]-thymidine incorporation in CHO-H1R cells",
  "format": "cell-based",
  "data": [
    {"compound": "NCCc1cnc(-c2cccc(C(F)(F)F)c2)[nH]1", "note": "[H1, 2,3-trifluormetilfenilhistamine]", "values": [
      {"measurement": "EC50", "value": "23.1 ± 3.6", "unit": "µM"}
    ]}
  ]
}
